Results taken from PubChem BioAssay AID328 (DTP/NCI, 2004).
Values joined by “and” are separate entries in the source; they are usually repeats but may differ in a detail not shown here. Equal entries are not always repeated. Inconclusive results and toxic doses are left out.

System: BDF1 mice, P388 leukemia ip, median survival T/C
Test: NCI In Vivo Anticancer Drug Screen. Data for tumor model P388 Leukemia (intraperitoneal) in B6D2F1 (BDF1) mice
Conditions: endpoint: median survival time, higher = longer survival
Outline: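 Compound-treated tumour-bearing mice were compared with vehicle-treated controls. Survival was recorded, and the value is the treated-group measurement divided by the control-group measurement (T/C).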

[1] = dose: 100.0 mg/kg/injection, schedule: Q01DX009 (ip), vehicle: saline with Tween-80
[2] = dose: 200.0 mg/kg/injection, schedule: Q01DX009 (ip), vehicle: saline with Tween-80

SMILES: COc1ccc(C2=CC(=O)C(c3ccc(OC)cc3)=CC2=O)cc1
- T/C (dose: 5.0 mg/kg/injection, schedule: Q01DX009 (ip), vehicle: gum acacia): 87 % of control
- T/C (dose: 20.0 mg/kg/injection, schedule: Q01DX009 (ip), vehicle: gum acacia): 91 % of control
- T/C (dose: 20.0 mg/kg/injection, schedule: Q04DX003 (ip), vehicle: gum acacia): 100 % of control
- T/C (dose: 40.0 mg/kg/injection, schedule: Q01DX009 (ip), vehicle: gum acacia): 95 % of control
- T/C (dose: 40.0 mg/kg/injection, schedule: Q04DX003 (ip), vehicle: gum acacia): 90 % of control
- T/C (dose: 80.0 mg/kg/injection, schedule: Q01DX009 (ip), vehicle: gum acacia): 91 % of control
- T/C (dose: 80.0 mg/kg/injection, schedule: Q04DX003 (ip), vehicle: gum acacia): 95 % of control

SMILES: O=C(O)CNC(=O)CNC(=O)C(Br)Cc1ccccc1 (centres undefined)
- T/C (dose: 25.0 mg/kg/injection, schedule: Q01DX009 (ip), vehicle: saline with Tween-80): 95 % of control
- T/C (dose: 25.0 mg/kg/injection, schedule: Q04DX003 (ip), vehicle: Klucel (hydroxypropylcellulose) (HPC)): 104 % of control
- T/C (dose: 50.0 mg/kg/injection, schedule: Q01DX009 (ip), vehicle: saline with Tween-80): 87 % of control
- T/C (dose: 50.0 mg/kg/injection, schedule: Q04DX003 (ip), vehicle: Klucel (hydroxypropylcellulose) (HPC)): 104 % of control
- T/C [1]: 100 % of control
- T/C (dose: 100.0 mg/kg/injection, schedule: Q04DX003 (ip), vehicle: Klucel (hydroxypropylcellulose) (HPC)): 91 % of control and 100 % of control

SMILES: COC(=O)C(N)CCCCNc1ccc2c(cc1=O)C(NC(C)=O)CCc1cc(OC)c(OC)c(OC)c1-2 (centres undefined)
- T/C (dose: 26.0 mg/kg/injection, schedule: Q01DX009 (ip), vehicle: saline with Tween-80): 124 % of control
- T/C (dose: 40.0 mg/kg/injection, schedule: Q01DX009 (ip), vehicle: saline with Tween-80): 118 % of control
- T/C (dose: 60.0 mg/kg/injection, schedule: Q01DX009 (ip), vehicle: saline with Tween-80): 119 % of control
- T/C (dose: 90.0 mg/kg/injection, schedule: Q01DX009 (ip), vehicle: saline with Tween-80): 117 % of control
- T/C [2]: 170 % of control
- T/C (dose: 300.0 mg/kg/injection, schedule: Q01DX009 (ip), vehicle: saline with Tween-80): 159 % of control

SMILES: COCCCn1c(C(Cl)(Cl)Cl)nn2c(=O)c3ccccc3nc2c1=O
- T/C [1]: 87 % of control
- T/C [2]: 90 % of control

SMILES: BrCCN(CCBr)c1ccc2c3c(cccc13)-c1ccccc1-2
- T/C (dose: 0.13 mg/kg/injection, schedule: Q01DX009 (ip), vehicle: saline): 107 % of control
- T/C (dose: 0.25 mg/kg/injection, schedule: Q01DX009 (ip), vehicle: saline): 92 % of control
- T/C (dose: 0.5 mg/kg/injection, schedule: Q01DX009 (ip), vehicle: saline): 111 % of control
- T/C (dose: 0.68 mg/kg/injection, schedule: Q01DX009 (ip), vehicle: Klucel (hydroxypropylcellulose) (HPC)): 107 % of control
- T/C (dose: 1.0 mg/kg/injection, schedule: Q01DX009 (ip), vehicle: Klucel (hydroxypropylcellulose) (HPC)): 111 % of control
- T/C (dose: 1.0 mg/kg/injection, schedule: Q01DX009 (ip), vehicle: saline): 111 % of control
- T/C (dose: 3.12 mg/kg/injection, schedule: Q01DX009 (ip), vehicle: Klucel (hydroxypropylcellulose) (HPC)): 170 % of control
- T/C (dose: 21.0 mg/kg/injection, schedule: Q01DX009 (ip), vehicle: Klucel (hydroxypropylcellulose) (HPC)): 173 % of control
- T/C (dose: 30.0 mg/kg/injection, schedule: Q01DX009 (ip), vehicle: Klucel (hydroxypropylcellulose) (HPC)): 115 % of control
- T/C (dose: 45.0 mg/kg/injection, schedule: Q01DX009 (ip), vehicle: Klucel (hydroxypropylcellulose) (HPC)): 220 % of control
- T/C (dose: 70.0 mg/kg/injection, schedule: Q01DX009 (ip), vehicle: Klucel (hydroxypropylcellulose) (HPC)): 195 % of control
- T/C (dose: 176.0 mg/kg/injection, schedule: Q04DX003 (ip), vehicle: saline with Tween-80): 104 % of control
- T/C (dose: 400.0 mg/kg/injection, schedule: Q04DX003 (ip), vehicle: saline with Tween-80): 86 % of control
